Reference: patent US10899756B2, “Phosphodiesterase inhibitors and uses thereof” (The Trustees of Columbia University in the City of New York, priority 2013, dated 2021)
Where two headings read alike, the source gives them in different places.

Legend:
[1] = system: LTP in hippocampal slices of APP/PS1 mice; assay: Long-term potentiation in hippocampal slices, compound through the bath perfusion; settings: 50 nM bath perfusion
[2] = Pharmacokinetic study, brain and plasma; type: in vivo, C57B16 mice; settings: 25 mg/kg i.p., mice; for half-life: read-out: t½ (elimination half-life) (converted)
APP/PS1 mice [3] = assay: 2-day radial arm water maze (reference memory); type: in vivo
Protocol: The radial arm water maze task, a hybrid of the classic Morris Water Maze and the radial arm land maze, was performed as described in J. Alamed, D. M. Wilcock, D. M. Diamond, M. N. Gordon, D. Morgan, Two-day radial-arm water maze learning and memory task; robust resolution of amyloid-related memory deficits in transgenic mice, Nat. Prot. 1 (2006) 1671-1679, herein incorporated by reference in its entirety. The mouse had to swim in 6 alleys (arms) radiating from a central area until it found a hidden (submerged) platform at the end of one of the arms, based on visual cues placed in the room. The first day of the protocol was a training day on which mice were trained to identify the platform location by alternating between a visible and a hidden platform in a goal arm. The final 3 trials on that day and all 15 trials on day 2 used a hidden escape platform to force mice to use spatial cues to identify the location of the goal arm. […] The number of incorrect arm entries (entries to arms with no platform) was counted. […] Failure to select an arm after 15 sec was counted as an error and the mouse was returned to the start arm. […] For data analysis, averages for each mouse were calculated using blocks of 3 trials. […]

[4] = Acute toxicity study with histology; type: in vivo; settings: 120 or 240 mg/kg, i.p.
Text: Brain, muscle, kidney, and liver were harvested from each mouse, and tissue from each organ was examined histologically by a board-certified pathologist for signs of toxicity.

APP/PS1 mice [5] = assay: Contextual fear conditioning (fear memory); type: in vivo
Protocol: Fear conditioning was assessed as described in B. Gong, O. V. Vitolo, F. Trinchese, S. Liu, M. Shelanski, O. Arancio, Persistent improvement in synaptic and cognitive functions in an Alzheimer mouse model after rolipram treatment, J. Clin. Invest. 114 (2004) 1624-1634; F. Trinchese, S. Liu, F. Battaglia, S. Walter, P. M. Mathews, O. Arancio, Progressive age-related development of Alzheimer-like pathology in APP/PS1 mice, Ann. Neurol. 55 (2004) 801-814; and B. Gong, Z. Cao, P. Zheng, O. V. Vitolo, S. Liu, A. Staniszewski, D. Moolman, H. Zhang, M. Shelanski, O. Arancio, Ubiquitin hydrolase Uch-L1 rescues beta-amyloid-induced decreases in synaptic function and contextual memory, Cell 126 (2006) 775-788; each herein incorporated by reference in its entirety. […] Freezing behavior, defined as the absence of movements except for respiratory excursions, was scored using Freezeview software (Med Associates, St. Albans, Vt.). Contextual fear learning was evaluated 24 hrs after training by measuring freezing responses for 5 min in the same chamber where the mice were trained. Cued fear learning was evaluated 24 hrs after contextual testing. The mice were placed in a novel context for 2 min (pre-CS test), after which they were given a CS for 3 min (CS test), and freezing behavior was measured during the first 30 sec that mimic the CS-US conditioning and the remaining 2.5 min. […]

[6] = system: LTP in hippocampal slices of APP/PS1 mice; assay: Long-term potentiation in slices after 3 weeks daily i.p. treatment and 9-12 weeks without treatment; type: in vivo; settings: 3 mg/kg/day i.p. for 3 weeks from 3 months of age, treatment stopped 9-12 weeks prior to testing
Protocol: Transverse hippocampal slices (400 μm) were cut with a tissue chopper (EMS, PA) and maintained in an interface chamber at 29° C. for 90 min prior to recording, as described in Vitolo et al, Proc. Natl. Acad. Sci. USA 2002, 13217-13221, herein incorporated by reference in its entirety. The extracellular bath solution consisted of 124.0 mM NaCl, 4.4 mM KCl, 1.0 mM Na2HPO4, 25.0 mM NaHCO3, 2.0 mM CaCl2, 2.0 mM MgSO4, and 10.0 mM glucose, continuously aerated with 95% O2/5% CO2 to a final pH of 7.4. Field extracellular postsynaptic responses (fEPSPs) were recorded by placing the stimulating and recording electrodes in CA1 stratum radiatum. […] Basal synaptic transmission was first assessed by plotting the stimulus voltages (V) against slopes of fEPSP to generate input-output relations. A 20-30 min baseline was first recorded every minute at an intensity that evoked a response at approximately 35% of the maximum evoked response. […] Responses were measured as fEPSP slopes expressed as percentage of baseline.
Slices from transgenic mice treated with the compound had 226.23%±6.72 potentiation compared to 164.12%±10.37 in slices from vehicle-treated transgenic mice (FIG. 3). Residual potentiation recorded during the last 5 minutes of a 2 hr recording following tetanic stimulation of the Schaffer collateral fibers at the CA3-CA1 connection.

APP/PS1 mice [7] = assay: Preliminary studies with sildenafil in APP/PS1 mice; type: in vivo; settings: persist beyond the administration of the inhibitor
[8] = Metabolite formation (H versus D substitution); type: in vitro ADME; settings: substitution of H with D; instead of three
[9] = 3-4 month old APP/PS1 mice, 3 mg/kg i.p. for 3 weeks
[10] = APP/PS1 mice, 3 mg/kg/day i.p. for 3 weeks at 3-4 months, treatment stopped 9-12 weeks, examined at 6-7 months

## COc1ccc(CNc2c3c(nc4ccc(C#N)cc24)CCN(C(C)=O)C3)cc1Cl [Compound H, 2-acetyl-10-[(3-chloro-4-methoxybenzyl)amino]-1,2,3,4-tetrahydrobenzo[b][1,6]naphthyridine-8-carbonitrile]
[1]
  effect on potentiation in WT slices: no effect
[2]; Brain
  t½ (elimination half-life): 39 min
[2]; Plasma
  t½ (elimination half-life): 64.2 min
[2]; male, C57B16, mouse, ip, Brain
  Cmax: 492 ng/g
  half-life: 39 min
[2]; male, C57B16, mouse, ip, Plasma
  half-life: 64.2 min
APP/PS1 mice [3]; [9]
  errors in the last trial of the 2-day RAWM test: 1 to 2 errors
APP/PS1 mice [3]; [10]
  errors in the 2-day RAWM test: ~1 error
[4]
  brain sections, CD45 immunostain: no signs of inflammation
  brain sections, GFAP immunostain: no signs of gliosis
  brain sections, H&E: did not show any signs of toxicity
  brain sections, LFB-PAS stain: no signs of demyelination
  kidney sections, H&E staining: no toxicity
  kidney sections, PAS staining: did not show any abnormalities in the glomerular basement membrane
  kidney sections, trichrome staining: no fibrosis
  liver sections, H&E staining: did not show any signs of toxicity
  liver sections, trichrome stain: no fibrosis or cirrhotic liver disease
  muscle sections, H&E: no signs of toxicity
  muscle sections, trichrome stain: no muscle fibrosis
  neurotoxicity in the brain: no signs of neurotoxicity
APP/PS1 mice [5]; [9]
  freezing, contextual fear memory 24 hrs after shock: ~30%
APP/PS1 mice [5]; [10]
  freezing, contextual memory: ~40%
[6]
  residual potentiation (fEPSP slope, percentage of baseline): 226.23%±6.72

## CCCc1nn(C)c2c(=O)[nH]c(-c3cc(S(=O)(=O)N4CCN(C)CC4)ccc3OCC)nc12 [sildenafil]
APP/PS1 mice [7]
  effects on synaptic and cognitive abnormalities: prolonged beneficial effects

## [2H]C([2H])(Nc1c2c(nc3ccc(C#N)cc13)CCN(C(C)=O)C2)c1ccc(OC)c(Cl)c1 [U]
[8]
  number of metabolites formed: 1
